Test results taken from patent US12576018B2, “Active agents for skin and hair care with sensory modifying properties” (SYMRISE AG, priority 2019, dated 2026).

Tested on: skin
Experiment: Sensory assessment of 1 wt.-% 3-hydroxypropyl undecylenate in o/w emulsion versus placebo
Format: in vivo, human
Details: 1 wt.-% in o/w emulsion vs placebo without active
Experimental: Heat phase A and C separately up to 80° C. Disperse phase B in phase A. Add phase C to phase AB and emulsify using a HomoRex stirrer (3 min, […]). Add phase D and neutralize. Allow to cool by using a vane stirrer (10 min at 150 rpm, then 10 min at 100 rpm). Pre-dissolve 3-hydroxypropyl undecylenate with pentylene glycol and propylene glycol (phase E) and add to the emulsion by using a vane stirrer (10 min, 100 rpm). Sensory Assessment: Test design (for two samples; presented in random order) 100 μl of sample was applied on the forearm. Sample was distributed with index and middle finger in rotary movements for 20 seconds. Then the second sample is applied on the other forearm and again distributed. After 3 minutes the skin feel is evaluated. Question to the panellists: Which formulation (A or B) leaves the skin more soft and moisturized on a scale from 0-4? (Soft/moisture: 0=not at all; 4=very strong)

C=CCCCCCCCCC(=O)OCCCO [3-hydroxypropyl undecylenate]
Soft and moisturized skin feel versus placebo (in words): more soft and moisturized skin feel
